# From the supplement of paper PMC10307832
# Legend:
# Assay in all cases: relative viability (nuclei count vs DMSO), 5 days (fraction); higher = more cells survive
# HARA = test system: HARA
# Procedure, shortened: (§1)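 Lung cancer cell lines, seeded in 1536-well plates, were treated the following day by pin tool with a single drug or with five library-drug doses (not always all listed) in √10 steps on top of a fixed anchor-drug dose. Cells were fixed and nuclei stained in one step after 5 days, and nuclei were counted. Relative viability is the nuclei count for treated wells divided by that for vehicle wells, reported as medians of duplicate plates.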
# NCI-H596 = test system: NCI-H596
# Procedure, shortened: as §1
# NCI-H1755 = test system: NCI-H1755
# Procedure, shortened: as §1
# PC-3 [JPC-3] = test system: PC-3 [JPC-3]
# Procedure, shortened: as §1
# NCI-H1793 = test system: NCI-H1793
# Procedure, shortened: as §1
# NCI-H322M = test system: NCI-H322M
# Procedure, shortened: as §1
# H3255 = test system: H3255
# Procedure, shortened: as §1
# NCI-H2085 = test system: NCI-H2085
# Procedure, shortened: as §1
# NCI-H1651 = test system: NCI-H1651
# Procedure, shortened: as §1
# NCI-H2087 = test system: NCI-H2087
# Procedure, shortened: as §1
# NCI-H1650 = test system: NCI-H1650
# Procedure, shortened: as §1
# HCC-78 = test system: HCC-78
# Procedure, shortened: as §1
# 201T = test system: 201T
# Procedure, shortened: as §1
# NCI-H3122 = test system: NCI-H3122
# Procedure, shortened: as §1
# SK-LU-1 = test system: SK-LU-1
# Procedure, shortened: as §1
# COR-L23 = test system: COR-L23
# Procedure, shortened: as §1
# HCC-366 = test system: HCC-366
# Procedure, shortened: as §1
# LU99A = test system: LU99A
# Procedure, shortened: as §1
# NCI-H23 = test system: NCI-H23
# Procedure, shortened: as §1
# NCI-H460 = test system: NCI-H460
# Procedure, shortened: as §1
smiles,measurement,setting,value
Cc1cn(-c2cc(NC(=O)c3ccc(C)c(Nc4nccc(-c5cccnc5)n4)c3)cc(C(F)(F)F)c2)cn1 [Nilotinib] + CC1(C)CCC(c2ccc(Cl)cc2)=C(CN2CCN(c3ccc(C(=O)NS(=O)(=O)c4ccc(N[C@H](CCN5CCOCC5)CSc5ccccc5)c(S(=O)(=O)C(F)(F)F)c4)cc3)CC2)C1 [Navitoclax] (partner 0.5 µM),relative viability,HARA; first compound 0.001 µM,1.07
same,relative viability,HARA; first compound 0.003162 µM,1.26
same,relative viability,HARA; first compound 0.01 µM,1.24
same,relative viability,HARA; first compound 0.03162 µM,1.06
same,relative viability,HARA; first compound 0.1 µM,1.15
same,relative viability,NCI-H596; first compound 0.001 µM,0.924
same,relative viability,NCI-H596; first compound 0.003162 µM,1.12
same,relative viability,NCI-H596; first compound 0.01 µM,1.13
same,relative viability,NCI-H596; first compound 0.03162 µM,0.673
same,relative viability,NCI-H596; first compound 0.1 µM,0.922
same,relative viability,NCI-H1755; first compound 0.001 µM,0.969
same,relative viability,NCI-H1755; first compound 0.003162 µM,1.1
same,relative viability,NCI-H1755; first compound 0.01 µM,1.08
same,relative viability,NCI-H1755; first compound 0.03162 µM,0.83
same,relative viability,NCI-H1755; first compound 0.1 µM,0.93
same,relative viability,PC-3 [JPC-3]; first compound 0.001 µM,0.699
same,relative viability,PC-3 [JPC-3]; first compound 0.003162 µM,1
same,relative viability,PC-3 [JPC-3]; first compound 0.01 µM,0.888
same,relative viability,PC-3 [JPC-3]; first compound 0.03162 µM,0.666
same,relative viability,PC-3 [JPC-3]; first compound 0.1 µM,0.741
same,relative viability,NCI-H1793; first compound 0.003162 µM,0.452
same,relative viability,NCI-H1793; first compound 0.01 µM,0.587
same,relative viability,NCI-H1793; first compound 0.03162 µM,0.385
same,relative viability,NCI-H1793; first compound 0.1 µM,0.275
same,relative viability,NCI-H322M; first compound 0.001 µM,1.09
same,relative viability,NCI-H322M; first compound 0.003162 µM,1.51
same,relative viability,NCI-H322M; first compound 0.03162 µM,0.954
same,relative viability,NCI-H322M; first compound 0.1 µM,1.16
same,relative viability,H3255; first compound 0.001 µM,0.508
same,relative viability,H3255; first compound 0.003162 µM,0.479
same,relative viability,H3255; first compound 0.01 µM,0.541
same,relative viability,H3255; first compound 0.03162 µM,0.246
same,relative viability,H3255; first compound 0.1 µM,0.382
same,relative viability,NCI-H2085; first compound 0.001 µM,1.12
same,relative viability,NCI-H2085; first compound 0.003162 µM,1.19
same,relative viability,NCI-H2085; first compound 0.01 µM,1.38
same,relative viability,NCI-H2085; first compound 0.03162 µM,0.957
same,relative viability,NCI-H2085; first compound 0.1 µM,1.03
same,relative viability,NCI-H1651; first compound 0.001 µM,1.05
same,relative viability,NCI-H1651; first compound 0.003162 µM,1.56
same,relative viability,NCI-H1651; first compound 0.01 µM,1.43
same,relative viability,NCI-H1651; first compound 0.03162 µM,0.782
same,relative viability,NCI-H1651; first compound 0.1 µM,1.21
same,relative viability,NCI-H2087; first compound 0.001 µM,0.795
same,relative viability,NCI-H2087; first compound 0.003162 µM,0.86
same,relative viability,NCI-H2087; first compound 0.01 µM,0.997
same,relative viability,NCI-H2087; first compound 0.03162 µM,0.93
same,relative viability,NCI-H2087; first compound 0.1 µM,0.734
same,relative viability,NCI-H1650; first compound 0.001 µM,1.15
same,relative viability,NCI-H1650; first compound 0.003162 µM,1.26
same,relative viability,NCI-H1650; first compound 0.01 µM,1.45
same,relative viability,NCI-H1650; first compound 0.03162 µM,0.99
same,relative viability,NCI-H1650; first compound 0.1 µM,1.11
same,relative viability,HCC-78; first compound 0.001 µM,0.876
same,relative viability,HCC-78; first compound 0.003162 µM,0.692
same,relative viability,HCC-78; first compound 0.01 µM,0.945
same,relative viability,HCC-78; first compound 0.03162 µM,0.724
same,relative viability,HCC-78; first compound 0.1 µM,0.737
same,relative viability,201T; first compound 0.001 µM,1.22
same,relative viability,201T; first compound 0.003162 µM,1.29
same,relative viability,201T; first compound 0.01 µM,1.25
same,relative viability,201T; first compound 0.1 µM,1.21
same,relative viability,NCI-H3122; first compound 0.001 µM,1.09
same,relative viability,NCI-H3122; first compound 0.003162 µM,1.12
same,relative viability,NCI-H3122; first compound 0.01 µM,1.09
same,relative viability,NCI-H3122; first compound 0.1 µM,0.831
same,relative viability,SK-LU-1; first compound 0.001 µM,0.703
same,relative viability,SK-LU-1; first compound 0.003162 µM,1.17
same,relative viability,SK-LU-1; first compound 0.01 µM,1.14
same,relative viability,SK-LU-1; first compound 0.03162 µM,0.582
same,relative viability,SK-LU-1; first compound 0.1 µM,0.827
same,relative viability,COR-L23; first compound 0.001 µM,0.835
same,relative viability,COR-L23; first compound 0.003162 µM,1.17
same,relative viability,COR-L23; first compound 0.01 µM,1.18
same,relative viability,COR-L23; first compound 0.03162 µM,0.953
same,relative viability,COR-L23; first compound 0.1 µM,0.864
same,relative viability,HCC-366; first compound 0.001 µM,1.07
same,relative viability,HCC-366; first compound 0.01 µM,1.62
same,relative viability,HCC-366; first compound 0.03162 µM,0.696
same,relative viability,HCC-366; first compound 0.1 µM,0.744
same,relative viability,LU99A; first compound 0.001 µM,0.761
same,relative viability,LU99A; first compound 0.003162 µM,0.904
same,relative viability,LU99A; first compound 0.01 µM,0.985
same,relative viability,LU99A; first compound 0.03162 µM,0.76
same,relative viability,LU99A; first compound 0.1 µM,0.479
same,relative viability,NCI-H23; first compound 0.001 µM,0.78
same,relative viability,NCI-H23; first compound 0.003162 µM,0.839
same,relative viability,NCI-H23; first compound 0.01 µM,1.09
same,relative viability,NCI-H23; first compound 0.03162 µM,0.605
same,relative viability,NCI-H23; first compound 0.1 µM,0.721
same,relative viability,NCI-H460; first compound 0.001 µM,1.02
same,relative viability,NCI-H460; first compound 0.003162 µM,1.48
same,relative viability,NCI-H460; first compound 0.01 µM,1.76
same,relative viability,NCI-H460; first compound 0.03162 µM,0.628
same,relative viability,NCI-H460; first compound 0.1 µM,0.975
